Experimental findings from paper PMC7922108, “Three Novel Biphenanthrene Derivatives and a New Phenylpropanoid Ester from Aerides multiflora and Their α-Glucosidase Inhibitory Activity” (Plants, 2021) are described below.

Test [1] deals with Yeast α-glucosidase enzyme. The test is described as follows: α-Glucosidase inhibition assay (PNPG substrate). It is filed as biochemical. As to conditions: for IC50 / IC50 (μg/mL), α-glucosidase inhibitory activity: NA = no inhibitory activity, acarbose positive control. As for the experimental part:
Yeast α-glucosidase enzyme was used in this study. In general, α-glucosidase enzymes can be obtained from several sources, for example, Saccharomyces cerevisiae, Rattus norvegicus, and GANC-human.
The assays were performed following previous protocols. […] Each sample was initially dissolved in 50% DMSO. Then, 0.1 U/mL of α-glucosidase (40 μL) in phosphate buffer (pH 6.8) was added to each well of a 96-well plate which contained the sample solution (10 μL). The plate was pre-incubated at 37 °C for 10 min. Then, 2 mM p-nitrophenol-α-D-glucopyranoside (50 μL) was added, and the mixture was incubated again at 37 °C for 20 min. Finally, 1 M Na2CO3 solution (100 μL) was added to terminate the reaction. The absorbance of the mixture was measured at 405 nm using a microplate reader. Two-fold serial dilution was performed for IC50 determination. The drug acarbose was used as the positive control.

Test [2] relates to Yeast α-glucosidase enzyme. The test is described as follows: Enzyme kinetics study, Lineweaver–Burk plot and secondary plot. The test is classed as biochemical. As to conditions: for Mode of enzyme inhibition: from Lineweaver–Burk plot; for Km / Vmax: PNPG 0.25–2.0 mM. As for the experimental part: A kinetics study was then performed on compound 3 to analyze the mode of enzyme inhibition using various substrate concentrations (0.25–2.0 mM).
The mode of enzyme inhibition of the test compound was determined using the double reciprocal Lineweaver–Burk plot (1/V vs. 1/[S]). The experiment was performed by varying the PNPG concentrations (0.25, 0.5, 1.0, and 2.0 mM) in the absence or presence of compound 3 (4 μM and 8 μM) or acarbose (930 μM and 465 μM). The secondary plot was constructed by replotting the slopes of the lines against inhibitor concentrations, and the Ki was calculated from the line equation of the plot.

Structures are written as SMILES. Converted amounts (≈) assume the structure as drawn. “Also recorded” adds a separate entry of the source.

On to `COc1cc2c(ccc3c(-c4c(O)cc(OC)c5c4ccc4cc(O)c(OC)cc45)c(O)cc(OC)c32)cc1O` [Agrostonin (8), agrostonin], for which, in test [1], the IC50 was determined as 37.2 ± 4.5 µM and the “IC50 (μg/mL), α-glucosidase inhibitory activity” value amounted to 20.1 ± 2.5 µg/mL (≈ 37.3 µM).

Take `COc1cc2c(cc1O)CCc1cc(O)cc(OC)c1-2` [6-Methoxy coelonin (5), 6-methoxycoelonin]: in test [1], 225 ± 7.8 µM corresponded to half-maximal inhibition (IC50) and the “IC50 (μg/mL), α-glucosidase inhibitory activity” value stood at 61.2 ± 2.2 µg/mL (≈ 225 µM).

Regarding `COc1cc(O)cc(CCc2ccc(O)c(OC)c2)c1` [Gigantol (6), gigantol], in test [1], the concentration for half-maximal inhibition (IC50) was 191 ± 6.8 µM and the “IC50 (μg/mL), α-glucosidase inhibitory activity” value stood at 52.5 ± 1.9 µg/mL (≈ 191 µM).

On to `COc1cc(O)cc2c1-c1cc(O)c(O)cc1CC2` [5-methoxy-9,10-dihydrophenanthrene-2,3,7-triol], for which, in test [1], the IC50 worked out at 115 ± 9.1 µM and the “IC50 (μg/mL), α-glucosidase inhibitory activity” value was 29.7 ± 2.3 µg/mL (≈ 115 µM).

Consider `COc1cc2c(ccc3c(-c4c(O)cc5c6c4ccc4cc(O)c(OC)c(c46)CO5)c(O)cc(OC)c32)cc1O` [Aerimultin B (2), aerimultin B], for which, in test [1], 77 ± 2.5 µM corresponded to half-maximal inhibition (IC50) and the “IC50 (μg/mL), α-glucosidase inhibitory activity” value came to 41.8 ± 1.3 µg/mL (≈ 77.9 µM).

`COc1c(O)cc2c3c1COc1cc(O)cc(c1-3)CC2` [Imbricatin (7), imbricatin]: in test [1], inhibition was half-maximal at 166 ± 7.7 µM (IC50) and the “IC50 (μg/mL), α-glucosidase inhibitory activity” value stood at 44.9 ± 2.1 µg/mL (≈ 166 µM).

As to `COc1cc(O)c(-c2c(O)cc(OC)c3c2ccc2cc(O)c(O)cc23)c2ccc3cc(O)c(O)cc3c12` [Aerimultin C (3), aerimultin C], the “Mode of enzyme inhibition” value in test [2] was “non-competitive inhibition; also recorded: potent non-competitive inhibitor”. The “Mode of enzyme inhibition” value in test [2] (listed as aerimultin (3)) is “non-competitive type of inhibition”. In test [2] (from secondary plot (slopes vs inhibitor concentrations)), this molecule showed a Ki of 4.18 µM. In test [2] (inhibitor dose 4 μM), the Km was 1220 µM and the Vmax is reported as 0.055 ∆OD/min. In test [2] (inhibitor dose 8 μM), the Km was 1200 µM and the Vmax is given as 0.035 ∆OD/min. Also, in test [1], the “α-Glucosidase inhibitory activity (in words)” value was “most potent activity”; the IC50 is 5.2 ± 0.7 µM; the “IC50 (μg/mL), α-glucosidase inhibitory activity” value stood at 2.7 ± 0.4 µg/mL (≈ 5.29 µM).

Regarding `COc1cc2c(cc1O)CCc1c(Oc3cc4c(cc3OC)-c3c(cc(O)cc3OC)CC4)c(O)cc(OC)c1-2` [Aerimultin A (1), aerimultin A], in test [1], inhibition was half-maximal at 30.9 ± 1.9 µM (IC50) and the “IC50 (μg/mL), α-glucosidase inhibitory activity” value is 16.8 ± 1.0 µg/mL (≈ 31 µM).

On to `COc1cc(CCC(=O)OCCCc2cc(OC)c(O)c(OC)c2)ccc1O` [Dihydrosinapyl dihydroferulate (4), dihydrosinapyl dihydroferulate], for which the “α-Glucosidase inhibitory activity (in words)” value in test [1] is on record as “total loss of activity”.

With `COc1cc(CCCOC(=O)CCc2ccc(O)cc2)ccc1O` [Dihydroconiferyl dihydro-p-coumarate (9), dihydroconiferyl dihydro-p-coumarate], in test [1], half-maximal inhibition (IC50) was put at 267 ± 8.6 µM and the “IC50 (μg/mL), α-glucosidase inhibitory activity” value is 88.1 ± 2.9 µg/mL (≈ 267 µM).

A word on the IC50: it is the concentration needed to halve the response being measured. As a reminder, the Ki is the dissociation constant of the complex between target and ligand, obtained from inhibition or displacement. A word on the Km: it is the substrate concentration at which the rate is half of its maximum.
